According to ChEMBL document CHEMBL1201862, “PubChem BioAssay data set” (2004):
Activity calls are given as the source filed them.

Key:
[1] = Counterscreen for IDE inhibitors: Luminescence-based cell-based high throughput dose response assay to identify compounds that are cytotoxic to HEK cells. [Related pubchem assays: 434962 (Primary screen (IDE inhibitors in singlicate)), 449730 (Counterscreen (Cytotoxicity in triplicate)), 435028 (Confirmation (IDE inhibitors in triplicate)) …; format: functional; settings: HEK293
Insulin-degrading enzyme = target: T1, Insulin-degrading enzyme (Homo sapiens, UniProt P14735); assay: Dose Response: Fluorescence polarization-based cell-based high throughput dose response assay for inhibitors of insulin-degrading enzyme (IDE). [Related pubchem assays: 434962 (Primary screen (IDE inhibitors in singlicate)), 449730 (Counterscreen (Cytotoxicity in triplicate)), 435028 (Confirmation (IDE inhibitors in triplicate)), 434984 (Summary …; format: functional
T1 sequence (P14735 whole entry): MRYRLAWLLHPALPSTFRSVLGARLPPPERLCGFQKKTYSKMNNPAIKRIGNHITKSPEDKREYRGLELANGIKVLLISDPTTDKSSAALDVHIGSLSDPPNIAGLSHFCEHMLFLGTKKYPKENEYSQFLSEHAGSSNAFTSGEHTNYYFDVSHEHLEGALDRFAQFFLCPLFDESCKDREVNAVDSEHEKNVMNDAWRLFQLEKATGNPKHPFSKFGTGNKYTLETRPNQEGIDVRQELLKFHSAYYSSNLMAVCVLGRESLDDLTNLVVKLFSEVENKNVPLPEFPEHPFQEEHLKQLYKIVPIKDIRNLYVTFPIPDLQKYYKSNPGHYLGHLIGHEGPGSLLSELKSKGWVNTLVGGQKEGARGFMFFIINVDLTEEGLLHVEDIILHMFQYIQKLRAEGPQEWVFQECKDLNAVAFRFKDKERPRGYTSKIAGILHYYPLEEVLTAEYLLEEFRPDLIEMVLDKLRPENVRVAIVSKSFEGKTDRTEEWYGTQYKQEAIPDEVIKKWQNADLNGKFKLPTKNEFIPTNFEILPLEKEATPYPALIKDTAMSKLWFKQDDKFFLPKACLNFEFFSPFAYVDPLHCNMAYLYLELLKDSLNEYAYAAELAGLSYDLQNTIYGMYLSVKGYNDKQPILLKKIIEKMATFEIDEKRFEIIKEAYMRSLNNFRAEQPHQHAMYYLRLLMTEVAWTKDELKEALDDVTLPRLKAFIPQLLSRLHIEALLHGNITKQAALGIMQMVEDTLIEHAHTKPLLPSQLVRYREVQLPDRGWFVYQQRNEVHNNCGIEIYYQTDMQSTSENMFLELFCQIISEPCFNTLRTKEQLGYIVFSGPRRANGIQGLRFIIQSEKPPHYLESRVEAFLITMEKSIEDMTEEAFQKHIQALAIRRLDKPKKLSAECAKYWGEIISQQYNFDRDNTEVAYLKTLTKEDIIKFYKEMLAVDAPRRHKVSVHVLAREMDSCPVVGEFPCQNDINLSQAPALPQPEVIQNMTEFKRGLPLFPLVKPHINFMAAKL

[2] = target: T2, Mannose-6-phosphate isomerase (Homo sapiens, UniProt P34949); assay: PMI enzyme inhibitors, confirmation, biochemical, fluorescence intensity (AID 1535)
T2 sequence (P34949 whole entry): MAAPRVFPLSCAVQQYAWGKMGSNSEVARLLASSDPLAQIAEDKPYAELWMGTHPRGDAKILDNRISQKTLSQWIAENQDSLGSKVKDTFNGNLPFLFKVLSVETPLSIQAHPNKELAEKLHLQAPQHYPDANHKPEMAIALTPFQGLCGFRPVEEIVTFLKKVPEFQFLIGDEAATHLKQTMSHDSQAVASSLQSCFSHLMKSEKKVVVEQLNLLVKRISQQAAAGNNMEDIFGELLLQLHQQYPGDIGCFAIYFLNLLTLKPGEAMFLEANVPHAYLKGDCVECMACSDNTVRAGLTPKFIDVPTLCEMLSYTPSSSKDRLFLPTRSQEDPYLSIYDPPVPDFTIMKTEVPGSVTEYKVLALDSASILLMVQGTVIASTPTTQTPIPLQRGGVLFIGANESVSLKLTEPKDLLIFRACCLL

[3] = target: DNA dC->dU-editing enzyme APOBEC-3A (Homo sapiens, UniProt P31941); assay: APOBEC3A DNA deaminase inhibitors, dose response, biochemical (AID 504722); format: functional
Phosphomannomutase 2 = target: T3, Phosphomannomutase 2 (Homo sapiens, UniProt O15305); assay: Counter screen SAR assay for PMM2 inhibitors via a fluorescence intensity assay. [Related pubchem assays (depositor defined):AID1545, AID1574]
T3 sequence (O15305 whole entry): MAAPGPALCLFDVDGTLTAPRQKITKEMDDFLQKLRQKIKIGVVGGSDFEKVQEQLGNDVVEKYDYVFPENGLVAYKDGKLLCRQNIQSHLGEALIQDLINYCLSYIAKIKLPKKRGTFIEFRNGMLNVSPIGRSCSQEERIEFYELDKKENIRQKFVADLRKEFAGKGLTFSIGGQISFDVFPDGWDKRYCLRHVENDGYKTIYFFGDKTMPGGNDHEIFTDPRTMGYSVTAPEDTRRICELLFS

[4] = target: Phosphoethanolamine/phosphocholine phosphatase (Homo sapiens, UniProt Q8TCT1); assay: SAR assay for compounds that inhibit PHOSPHO1. [Related pubchem assays (depositor defined):AID1545, AID1565, AID1574]
[5] = target: DNA dC->dU-editing enzyme APOBEC-3G (Homo sapiens, UniProt Q9HC16); assay: Dose Response confirmation of small molecule APOBEC3G DNA Deaminase Inhibitors via a fluorescence-based single-stranded DNA deaminase assay. [Related pubchem assays (depositor defined):AID493012, AID493028]; format: functional
[6] = target: T4, Alkaline phosphatase, tissue-nonspecific isozyme (Homo sapiens, UniProt P05186); assay: human TNAP enzyme inhibitors, SAR follow-up, biochemical, luminescent, dose response (AID 1056)
T4 sequence (P05186 whole entry): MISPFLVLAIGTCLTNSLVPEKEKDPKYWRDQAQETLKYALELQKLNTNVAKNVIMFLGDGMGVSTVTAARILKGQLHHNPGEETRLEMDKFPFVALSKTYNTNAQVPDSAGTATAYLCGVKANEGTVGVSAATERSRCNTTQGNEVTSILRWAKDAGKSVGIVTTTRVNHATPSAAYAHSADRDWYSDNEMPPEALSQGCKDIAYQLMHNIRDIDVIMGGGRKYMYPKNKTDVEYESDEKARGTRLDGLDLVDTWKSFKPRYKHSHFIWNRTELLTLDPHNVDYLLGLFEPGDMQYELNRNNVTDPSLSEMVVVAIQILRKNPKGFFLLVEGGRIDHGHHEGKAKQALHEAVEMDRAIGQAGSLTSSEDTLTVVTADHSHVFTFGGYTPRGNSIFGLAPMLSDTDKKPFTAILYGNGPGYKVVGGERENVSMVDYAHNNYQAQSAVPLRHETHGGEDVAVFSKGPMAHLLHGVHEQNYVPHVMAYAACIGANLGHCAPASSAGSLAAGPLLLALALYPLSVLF

[7] = target: T5, Rac GTPase-activating protein 1 (Homo sapiens, UniProt Q9H0H5); assay: MgcRacGAP GTPase-activating activity inhibitors, confirmation, biochemical, ADP Hunter fluorescence, primary and confirmatory (AID 624330); format: functional
T5 sequence (Q9H0H5 whole entry): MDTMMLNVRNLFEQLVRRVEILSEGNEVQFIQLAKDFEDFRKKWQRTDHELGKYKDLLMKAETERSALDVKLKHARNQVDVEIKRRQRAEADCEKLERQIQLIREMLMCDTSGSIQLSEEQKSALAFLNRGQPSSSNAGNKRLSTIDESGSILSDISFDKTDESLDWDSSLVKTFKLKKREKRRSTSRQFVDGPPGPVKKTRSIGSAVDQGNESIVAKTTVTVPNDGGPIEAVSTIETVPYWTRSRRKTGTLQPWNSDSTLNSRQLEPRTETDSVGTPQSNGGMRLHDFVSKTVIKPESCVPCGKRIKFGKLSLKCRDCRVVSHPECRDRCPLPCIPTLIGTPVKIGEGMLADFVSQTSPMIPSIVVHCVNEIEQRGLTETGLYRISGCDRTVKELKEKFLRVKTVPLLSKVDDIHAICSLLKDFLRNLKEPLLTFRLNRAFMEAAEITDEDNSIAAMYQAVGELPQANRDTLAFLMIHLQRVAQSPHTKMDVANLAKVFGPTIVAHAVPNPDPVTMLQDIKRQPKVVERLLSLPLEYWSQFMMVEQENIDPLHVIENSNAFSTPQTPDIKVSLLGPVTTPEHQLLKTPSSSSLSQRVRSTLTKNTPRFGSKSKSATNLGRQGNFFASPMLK

DNA dC->dU-editing enzyme APOBEC-3G, sequence (Q9HC16 whole entry): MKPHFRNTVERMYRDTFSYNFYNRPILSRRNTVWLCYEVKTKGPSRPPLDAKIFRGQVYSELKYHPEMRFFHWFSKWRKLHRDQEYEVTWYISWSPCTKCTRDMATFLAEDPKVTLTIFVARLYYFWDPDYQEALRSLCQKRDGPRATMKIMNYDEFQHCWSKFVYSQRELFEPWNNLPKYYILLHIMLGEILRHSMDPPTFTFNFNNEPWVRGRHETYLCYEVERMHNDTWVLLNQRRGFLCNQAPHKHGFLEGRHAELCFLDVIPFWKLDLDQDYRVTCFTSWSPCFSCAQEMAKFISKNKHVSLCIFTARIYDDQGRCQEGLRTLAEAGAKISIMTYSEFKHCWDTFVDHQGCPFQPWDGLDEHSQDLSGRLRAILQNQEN
Phosphoethanolamine/phosphocholine phosphatase, sequence (Q8TCT1 whole entry): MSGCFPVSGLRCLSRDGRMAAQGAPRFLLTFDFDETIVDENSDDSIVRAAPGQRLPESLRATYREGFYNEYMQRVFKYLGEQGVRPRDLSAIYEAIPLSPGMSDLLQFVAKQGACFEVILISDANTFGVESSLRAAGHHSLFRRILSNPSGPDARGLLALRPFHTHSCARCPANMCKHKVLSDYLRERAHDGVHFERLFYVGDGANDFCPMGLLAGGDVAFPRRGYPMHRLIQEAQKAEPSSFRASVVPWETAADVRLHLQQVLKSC
DNA dC->dU-editing enzyme APOBEC-3A, sequence (P31941 whole entry): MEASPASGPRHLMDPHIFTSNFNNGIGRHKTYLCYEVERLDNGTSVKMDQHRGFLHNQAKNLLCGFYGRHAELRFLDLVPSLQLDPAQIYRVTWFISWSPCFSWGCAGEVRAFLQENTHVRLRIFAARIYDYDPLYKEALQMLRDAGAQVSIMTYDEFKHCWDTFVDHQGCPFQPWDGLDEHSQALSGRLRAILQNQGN

O=C(O)c1cccc(-n2sc3ccccc3c2=O)c1
IC50 [1]: 36.7 µM (not active) | IC50 (Insulin-degrading enzyme): 2.38 µM (active) | IC50 [2]: 3.29 µM (active) | IC50 [3]: > 100 µM (inactive) | IC50 (Phosphomannomutase 2): 52.5 µM (active) | IC50 [4]: 1.14 µM (inactive) | IC50 [5]: 4.85 µM (active) | IC50 [6]: > 100 µM (inactive) | IC50 [7]: 30.1 µM (active)
